Counter-ions that a name gives are not always drawn.

The first test relates to RPA194. The test is described as follows: RPA194 immunofluorescence high-content imaging in A375 cells (Pol I inhibition). Type of test: cell-based. As to conditions: treated for 4 hours, top concentration 10 μM. The protocol: Cell culture: A375 cells (CRL-1619, ATCC) were grown in DMEM (GIBCO) supplemented with 10% fetal bovine serum (GIBCO) in 5% CO2 at 37° C.
Cell treatment and Imaging: 18 hours post-seeding in cell carrier black 384-well plates (PerkinElmer) at 15 000 cells/well, A375 cells were treated for 4 hours with a positive control or test compounds (9 serial semi-log dilutions, top concentration 10 μM). Upon treatment A375 cells were (i) fixed for 15 min at RT with 4% of paraformaldehyde, (ii) permeabilized for 20 min at RT with 0.1-0.5% of NP-40, (iii) incubated with primary antibodies at 4° C.: anti-RPA194 (1:1000-1:1250 dilution, sc-48385, Santa Cruz Biotechnology) and anti-gH2Ax (1:5000 dilution, 81299, Abcam or 1:4000, JBW302, Millipore) (iv) incubated for 1 h at RT with Hoechst (1:5000 dilution, H3570, ThermoFisher) and secondary antibodies: anti-mouse-AlexaFluor488 (1:2000 dilution, A11001, ThermoFisher) and anti-rabbit-AlexaFluor647 (1:2000 dilution, A21443, ThermoFisher) or goat anti-mouse AlexaFluor-594 (1:1000 dilution). Images were acquired on an Operetta CLS High-Content Analysis System (PerkinElmer) (40× objective; 9 fields/well) and processed using the Columbus Image Analysis System (PerkinElmer) or by using Molecular Devices ImageXpress Micro XLS High Content Imager and MetaXpress high-content acquisition and analysis software.
In the table below, (+) is associated with a pIC50 5.02 to 5.8; (++) with pIC50 5.8 to 6.3; and plus sing (+++) with a pIC50 above 6.3.
As for `O=C(NCCN1C[C@@H](O)[C@H](O)C1)c1cccn2c(=O)c3cc4c(cc3nc12)OC(F)(F)O4` [Compound 101, N-(2-((3R,4R)-3,4-dihydroxypyrrolidin-1-yl)ethyl)-2,2-difluoro-11-oxo-11H-[1,3]dioxolo[4,5-g]pyrido[2,1-b]quinazoline-6-carboxamide], the “Activity Range (pIC50)” value is “+ ((+) is associated with a pIC50 5.02 to 5.8)”.

Take `O=C(NCCN1CCC(O)C1)c1cccn2c(=O)c3cc4c(cc3nc12)OC(F)(F)O4` (centres unmarked) [Compound 102, 2,2-difluoro-N-(2-(3-hydroxypyrrolidin-1-yl)ethyl)-11-oxo-11H-[1,3]dioxolo[4,5-g]pyrido[2,1-b]quinazoline-6-carboxamide; hydrochloride]: the “Activity Range (pIC50)” value is recorded as “+ ((+) is associated with a pIC50 5.02 to 5.8)”.

On to `O=C1CCN(CCNC(=O)c2cccn3c(=O)c4cc5c(cc4nc23)OC(F)(F)O5)CC1` [Compound 103, 2,2-difluoro-11-oxo-N-(2-(4-oxopiperidin-1-yl)ethyl)-11H-[1,3]dioxolo[4,5-g]pyrido[2,1-b]quinazoline-6-carboxamide], for which the “Activity Range (pIC50)” value is listed as “++ ((++) with pIC50 5.8 to 6.3)”. For `CN(C)CCNC(=O)c1cccn2c(=O)c3cc4c(cc3nc12)OC(F)(F)O4` [Compound 104, N-(2-(dimethylamino)ethyl)-2,2-difluoro-11-oxo-11H-[1,3]dioxolo[4,5-g]pyrido[2,1-b]quinazoline-6-carboxamide; hydrochloride], the “Activity Range (pIC50)” value is reported as “+ ((+) is associated with a pIC50 5.02 to 5.8)”. As to `O=C(NCCN1CCC(O)CC1)c1cccn2c(=O)c3cc4c(cc3nc12)OC(F)(F)O4` [Compound 105, 2,2-difluoro-N-(2-(4-hydroxypiperidin-1-yl)ethyl)-11-oxo-11H-[1,3]dioxolo[4,5-g]pyrido[2,1-b]quinazoline-6-carboxamide; hydrochloride], the “Activity Range (pIC50)” value is reported as “++ ((++) with pIC50 5.8 to 6.3)”. For `CN(C)C(C)(C)CNC(=O)c1cccn2c(=O)c3cc4c(cc3nc12)OC(F)(F)O4` [Compound 106, N-(2-(dimethylamino)-2-methylpropyl)-2,2-difluoro-11-oxo-11H-[1,3]dioxolo[4,5-g]pyrido[2,1-b]quinazoline-6-carboxamide; hydrochloride], the “Activity Range (pIC50)” value is “+ ((+) is associated with a pIC50 5.02 to 5.8)”. Consider `O=C(NCCN1CCCC1)c1cccn2c(=O)c3cc4c(cc3nc12)OC(F)(F)O4` [Compound 107, 2,2-difluoro-11-oxo-N-(2-(pyrrolidin-1-yl)ethyl)-11H-[1,3]dioxolo[4,5-2]pyrido[2,1-b]quinazoline-6-carboxamide; hydrochloride], for which the “Activity Range (pIC50)” value is “+++ ((+++) with a pIC50 above 6.3)”.

Consider `O=C(NCCN1CCCC1)c1cccn2c(=O)c3cc4c(cc3nc12)OCO4` [Compound 108, 11-oxo-N-(2-(pyrrolidin-1-yl)ethyl)-11H-[1,3]dioxolo[4,5-g]pyrido[2,1-b]quinazoline-6-carboxamide; hydrochloride], for which the “Activity Range (pIC50)” value is listed as “++ ((++) with pIC50 5.8 to 6.3)”.

`Cc1cc2nc3c(C(=O)NCCN(C)C)cccn3c(=O)c2cc1C` [Compound 109, N-(2-(dimethylamino)ethyl)-2,3-dimethyl-11-oxo-11H-pyrido[2,1-b]quinazoline-6-carboxamide; hydrochloride]: the “Activity Range (pIC50)” value is listed as “++ ((++) with pIC50 5.8 to 6.3)”.

As for `Cc1cc2nc3c(C(=O)NCCN4CCCC4)cccn3c(=O)c2cc1C` [Compound 110, 2,3-dimethyl-11-oxo-N-(2-(pyrrolidin-1-yl)ethyl)-11H-pyrido[2,1-b]quinazoline-6-carboxamide; hydrochloride], the “Activity Range (pIC50)” value is given as “++ ((++) with pIC50 5.8 to 6.3)”.

With `CN(C)CCNC(=O)c1cccn2c(=O)c3cc4c(cc3nc12)CCCC4` [Compound 111, N-(2-(dimethylamino)ethyl)-12-oxo-7,9,10,12-tetrahydro-8H-benzo[g]pyrido[2,1-b]quinazoline-4-carboxamide; hydrochloride], the “Activity Range (pIC50)” value was “+ ((+) is associated with a pIC50 5.02 to 5.8)”. Turning to `O=C(NCCN1CCCC1)c1cccn2c(=O)c3cc4c(cc3nc12)CCCC4` [Compound 112, 12-oxo-N-(2-(pyrrolidin-1-yl)ethyl)-7,9,10,12-tetrahydro-8H-benzo[g]pyrido[2,1-b]quinazoline-4-carboxamide; hydrochloride], the “Activity Range (pIC50)” value is “++ ((++) with pIC50 5.8 to 6.3)”. As to `O=C(NCCN1CCCC1)c1cccn2c(=O)c3cc4c(cc3nc12)OCCO4` [Compound 113, 12-oxo-N-(2-(pyrrolidin-1-yl)ethyl)-2,3-dihydro-12H-[1,4]dioxino[2,3-2]pyrido[2,1-b]quinazoline-7-carboxamide; hydrochloride], the “Activity Range (pIC50)” value is “+ ((+) is associated with a pIC50 5.02 to 5.8)”. Turning to `CN(C)CCNC(=O)c1cccn2c(=O)c3cc4c(cc3nc12)OCCO4` [Compound 114, N-(2-(dimethylamino)ethyl)-12-oxo-2,3-dihydro-12H-[1,4]dioxino[2,3-g]pyrido[2,1-b]quinazoline-7-carboxamide; hydrochloride], the “Activity Range (pIC50)” value is “+ ((+) is associated with a pIC50 5.02 to 5.8)”. Regarding `Cc1ccc2c(=O)n3cccc(C(=O)NCCN4CC[C@@H](O)C4)c3nc2c1C` [Compound 115, (R)-N-(2-(3-hydroxypyrrolidin-1-yl)ethyl)-3,4-dimethyl-11-oxo-11H-pyrido[2,1-b]quinazoline-6-carboxamide; hydrochloride], the “Activity Range (pIC50)” value is listed as “+++ ((+++) with a pIC50 above 6.3)”.

In the case of `Cc1ccc2c(=O)n3cccc(C(=O)NCCN4CCCC4)c3nc2c1` [Compound 116, 3-methyl-11-oxo-N-(2-(pyrrolidin-1-yl)ethyl)-11H-pyrido[2,1-b]quinazoline-6-carboxamide;hydrochloride], the “Activity Range (pIC50)” value is recorded as “+ ((+) is associated with a pIC50 5.02 to 5.8)”. `Cc1cccc2c(=O)n3cccc(C(=O)NCCN4CCCC4)c3nc12` [Compound 117, 4-methyl-11-oxo-N-(2-(Pyrrolidin-1-Yl)ethyl)-11H-pyrido[2,1-b]quinazoline-6-carboxamide;hydrochloride]: the “Activity Range (pIC50)” value is “++ ((++) with pIC50 5.8 to 6.3)”. Same read-out and setting: in the case of `O=C(NCCN1CCCC1)c1cccn2c(=O)c3cccc(-c4ccccc4)c3nc12` [Compound 118, 11-oxo-4-phenyl-N-(2-(pyrrolidin-1-yl)ethyl)-11H-pyrido[2,1-b]quinazoline-6-carboxamide; hydrochloride] it was “+ ((+) is associated with a pIC50 5.02 to 5.8)”; in that of `O=C(NCCN1CCCC1)c1cccn2c(=O)c3ccc(-c4ccccc4)cc3nc12` [Compound 119, 11-oxo-3-phenyl-N-(2-(pyrrolidin-1-yl)ethyl)-11H-pyrido[2,1-b]quinazoline-6-carboxamide; hydrochloride], “+ ((+) is associated with a pIC50 5.02 to 5.8)”. Same read-out and setting: the entry for `Cc1ccc2c(=O)n3cccc(C(=O)NCCN4CCCC4)c3nc2c1C` [Compound 120, 3,4-dimethyl-11-oxo-N-(2-(pyrrolidin-1-yl)ethyl)-11H-pyrido[2,1-b]quinazoline-6-carboxamide; hydrochloride] is “+++ ((+++) with a pIC50 above 6.3)”; for `O=C(NCCN1CCCC1)c1cccn2c(=O)c3ccc4c(c3nc12)OC(F)(F)O4` [Compound 121, 2,2-difluoro-6-oxo-N-(2-(pyrrolidin-1-yl)ethyl)-6H-[1,3]dioxolo[4,5-h]pyrido[2,1-b]quinazoline-11-carboxamide;hydrochloride] it is “+ ((+) is associated with a pIC50 5.02 to 5.8)”.

In a further test the test system is NCI60 cancer cell lines.
Experiment: not given
The settings on record: cited from earlier work.
As for `CN(C)CCNC(=O)c1cccn2c(=O)c3cc4ccccc4cc3nc12` [BMH-21, 12H-Benzo[g]pyrido[2,1-b]quinazoline-4-carboxamide, N-[2(dimethylamino)ethyl]-12-oxo], the anticancer activity result was “anticancer activity”.

The next test has as its system tumor burden.
Experiment: not given
The settings on record: mouse xenograft assays; cited from earlier work.
Turning to `CN(C)CCNC(=O)c1cccn2c(=O)c3cc4ccccc4cc3nc12` [BMH-21, 12H-Benzo[g]pyrido[2,1-b]quinazoline-4-carboxamide, N-[2(dimethylamino)ethyl]-12-oxo], the tumor burden entry was “reduced tumor burden”.
